# Patent US11952368B2, “FAPI dimer compound, FAPI dimer-based positron emission tomography (PET) imaging agent for tumor diagnosis, and preparation method and use thereof” (XIAMEN UNIVERSITY, priority 2021, dated 2024)
# Key:
# [1] = system: lesions in the three cancer patients; experiment: PET/CT in tumor patients (NPC, thyroid cancer, HCC), SUVmax of lesions; assay type: in vivo, human
# Protocol: This experiment was approved by the Clinical Research Ethics Committee of the First Affiliated Hospital of Xiamen University, and all subjects signed a written informed consent form. Doses of ^68Ga-FAPI-46 and ^68Ga-2PEG(3)-FAPI-dimer for intravenous injection (1.8 MBq to 2.2 MBq [0.05 mCi to 0.06 mCi]/kg) were calculated according to a body weight of a patient. A cancer patient was administered with ^68Ga-2PEG(3)-FAPI-dimer and ^68Ga-FAPI-46 at an interval of 3 d. Data were acquired using a hybrid PET/CT scanner (Discovery MI, GE Healthcare, Milwaukee, WI, USA). A PET/CT image was acquired at 60 min after intravenous injection (a thyroid cancer patient was scanned twice at 60 min and 240 min after injection). A maximum standard uptake value (SUVmax) was automatically calculated with ROIs drawn on a transaxial image. PET/CT scanning was conducted at 60 min after the three patients were intravenously administered with ^68Ga-FAPI-46 and ^68Ga-2PEG(3)-FAPI-dimer, including a nasopharyngeal carcinoma (NPC) patient (non-keratinizing undifferentiated carcinoma, immunotherapy was conducted when the widespread bone metastasis occurred after chemoradiotherapy), a thyroid cancer patient (multiple cycles of radioactive iodine therapy were conducted after papillary thyroid carcinoma (PTC), total thyroidectomy, and lymph node dissection), and an HCC patient (untreated at preliminary diagnosis). The comparison of ^68Ga-FAPI-46 and ^68Ga-2PEG(3)-FAPI-dimer uptake among lesions in the three cancer patients was shown in Table 3.
# [2] = system: HCC-PDX-1; experiment: Biodistribution in HCC-PDX-1 mice (gamma counter); assay type: in vivo, mouse; conditions: for tumor uptake: HCC-PDX-1, 1.48 MBq
# Protocol: HCC-PDX-1 mice were injected with 1.48 MBq of ^68Ga-2PEG(3)-FAPI-dimer, and 1 h and 4 h after the injection (3 parallel experiments per time point), major organs and tumors were isolated, weighed, and analyzed. The ^68Ga-FAPI-46 group (1.48 MBq) and blocking group (1.48 MBq ^68Ga-2PEG(3)-FAPI-dimer+30 nmol unlabeled FAPI-46) were compared in terms of biodistribution.
# [3] = Patient 1 (NPC), PET/CT 60 min after i.v. injection
# [4] = Patient 2 (Thyroid cancer), PET/CT 60 min after i.v. injection
smiles,measurement,setting,value
CN(CCCN1CCN(C(=O)COCCOCCOCCNC(=O)CCC(=O)N[C@@H](CCCCNC(=O)CN2CCN(CC(=O)[O-])CCN(CC(=O)[O-])CCN(CC(=O)[O-])CC2)C(=O)NCCOCCOCCOCC(=O)N2CCN(CCCN(C)c3ccc4nccc(C(=O)NCC(=O)N5CC(F)(F)C[C@H]5C#N)c4c3)CC2)CC1)c1ccc2nccc(C(=O)NCC(=O)N3CC(F)(F)C[C@H]3C#N)c2c1.[68Ga+3] [^68Ga-2PEG(3)-FAPI-dimer],"SUVmax, Bone metastasis 1",[1]; [3],17.8
same,"SUVmax, Bone metastasis 2",[1]; [3],27.5
same,"SUVmax, Bone metastasis 3",[1]; [3],27.4
same,"SUVmax, Bone metastasis 4",[1]; [3],25.1
same,"SUVmax, Bone metastasis 5",[1]; [3],29.8
same,"SUVmax, Bone metastasis 6",[1]; [3],20.8
same,"SUVmax, Bone metastasis 7",[1]; [3],17.2
same,"SUVmax, Bone metastasis 8",[1]; [3],22.1
same,"SUVmax, Bone metastasis 10",[1]; [3],23.3
same,"SUVmax, Axillary lymph node 1",[1]; [4],23.2
same,"SUVmax, Axillary lymph node 2",[1]; [4],33.2
same,"SUVmax, Axillary lymph node 3",[1]; [4],28.9
same,"SUVmax, Bone metastasis 1",[1]; [4],26.4
same,"SUVmax, Cervical lymph node 1",[1]; [4],32.8
same,"SUVmax, Cervical lymph node 2",[1]; [4],8.1
same,"SUVmax, Hilar lymph node 1",[1]; [4],18.1
same,"SUVmax, Mediastinal lymph node 1",[1]; [4],24.6
same,"SUVmax, Supraclavicular lymph node 1",[1]; [4],39.0
same,"SUVmax, Supraclavicular lymph node 2",[1]; [4],24.1
same,"SUVmax, Primary tumor","[1]; Patient 3 (HCC), tumor with low FAP expression, PET/CT 60 min after i.v. injection",9.8
same,uptake compared with ^68Ga-FAPI-46 in the comparative analysis of single lesions,"[1]; three cancer patients, Table 3",significantly higher
same,tumor uptake in the blocking group,"[2]; HCC-PDX-1, 1.48 MBq + 30 nmol unlabeled FAPI-46, 1 h after injection",1.07±0.19 % ID/g
same,tumor uptake in the blocking group,"[2]; HCC-PDX-1, 1.48 MBq + 30 nmol unlabeled FAPI-46, 4 h after injection",1.14±0.15 % ID/g
same,tumor uptake,[2]; 1 h after injection,8.97±0.32 % ID/g
same,tumor uptake,[2]; 4 h after injection,7.61±0.64 % ID/g
